Calls of active or inactive are those of the source. The calls are words filed in the database; no cut-off is given here.
Columns and labels:
[1] = Half life in BALB/c mouse at 10 mg/kg, sc by LC-MS/MS analysis; format: ADME, organism-based; details: in vivo
[2] = system: von Hippel-Lindau disease tumor suppressor/GTPase KRas (Homo sapiens), P01116+P40337 [G12D]; experiment: PROTAC activity at VHL/KRAS G12D mutant in human ASPC1 cells assessed as decrease in pERK level at 1 uM incubated for 6 hrs followed by compound washout measured upto 72 hrs by Western blot analysis; format: cell-based
[3] = molecular target: T1, von Hippel-Lindau disease tumor suppressor/GTPase KRas (Homo sapiens, UniProt P01116+P40337, G12D); experiment: PROTAC activity at VHL/KRAS G12D mutant in human ASPC1 cells assessed as induction of protein degradation incubated for 24 hrs by Western blot analysis; format: cell-based; details: read-out: DC50
[4] = Competitive binding affinity to His-tagged VHL/Elongin C/Elongin B/KRAS G12D mutant (unknown origin) by FP assay; parameters: species or system Homo sapiens
[5] = Cooperativity factor alpha, ratio of IC50 for His-tagged VHL/Elongin C/Elongin B (unknown origin) to IC50 for His-tagged VHL/Elongin C/Elongin B/KRAS (unknown origin)
[6] = Drug uptake in human ASPC1 cells at 10 uM incubated for 1 hr by MS analysis; format: ADME, cell-based; details: aspc1, 1 h
[7] = system: von Hippel-Lindau disease tumor suppressor/GTPase KRas (Homo sapiens), P01116+P40337 [G12D]; experiment: PROTAC activity at VHL/KRAS G12D mutant in human ASPC1 cells assessed as induction protein degradation at 1 uM measured for 6 hrs by Western blot analysis relative to control; format: cell-based
[8] = system: von Hippel-Lindau disease tumor suppressor/GTPase KRas (Homo sapiens), P01116+P40337 [G12D]; experiment: PROTAC activity at VHL/KRAS G12D mutant in human ASPC1 cells assessed as induction of protein degradation at 1 uM pretreated with 4-(4-((1R,5S)-3,8-diazabicyclo[3.2.1]octan-3-yl)-8-fluoro-2-(((S)-1-methylpyrrolidin-2-yl)methoxy)pyrido[4,3-d]pyrimidin-7-yl)-5-ethyl-6-fluoronaphthalen-2-ol followed by compound treatment for 6 hrs by Western blot analysis; format: cell-based
[9] = system: von Hippel-Lindau disease tumor suppressor/GTPase KRas (Homo sapiens), P01116+P40337 [G12D]; experiment: PROTAC activity at VHL/KRAS G12D mutant in human ASPC1 cells assessed as induction of protein degradation at 1 uM pretreated with MG-132 followed by compound treatment for 6 hrs by Western blot analysis; format: cell-based
[10] = system: von Hippel-Lindau disease tumor suppressor/GTPase KRas (Homo sapiens), P01116+P40337 [G12D]; experiment: PROTAC activity at VHL/KRAS G12D mutant in human ASPC1 cells assessed as induction of protein degradation at 1 uM pretreated with chloroquine followed by compound treatment for 6 hrs by Western blot analysis; format: cell-based
[11] = system: von Hippel-Lindau disease tumor suppressor/GTPase KRas (Homo sapiens), P01116+P40337 [G12D]; experiment: PROTAC activity at VHL/KRAS G12D mutant in human ASPC1 cells assessed as induction of protein degradation at 1 uM pretreated with BafA1 followed by compound treatment for 6 hrs by Western blot analysis; format: cell-based
[12] = system: von Hippel-Lindau disease tumor suppressor/GTPase KRas (Homo sapiens), P01116+P40337 [G12D]; experiment: PROTAC activity at VHL/KRAS G12D mutant in human ASPC1 cells assessed as induction of protein degradation at 0.1 uM incubated for 24 hrs by Western blot analysis relative to control; format: cell-based
[13] = system: von Hippel-Lindau disease tumor suppressor/GTPase KRas (Homo sapiens), P01116+P40337 [G12S]; experiment: PROTAC activity at VHL/KRAS G12S mutant in human A549 cells assessed as induction of protein degradation at 0.1 uM incubated for 24 hrs by Western blot analysis; format: cell-based
[14] = system: von Hippel-Lindau disease tumor suppressor/GTPase KRas (Homo sapiens), P01116+P40337 [G12R]; experiment: PROTAC activity at VHL/KRAS G12R mutant in human CAL-62 cells assessed as induction of protein degradation at 0.1 uM incubated for 24 hrs by Western blot analysis; format: cell-based
ASPC1 [15] = experiment: Downregulation of DUSP4 mRNA level in human ASPC1 cells at 0.1 to 1 uM incubated for 6 hrs by RT-qPCR analysis; format: functional, cell-based; details: dose 0.1-1 µM
[16] = molecular target: T1, von Hippel-Lindau disease tumor suppressor/GTPase KRas; experiment: PROTAC activity at VHL/KRAS G12D mutant in human HPAF-II cells assessed as induction of protein degradation incubated for 24 hrs by Western blot analysis; format: cell-based
[17] = molecular target: T1, von Hippel-Lindau disease tumor suppressor/GTPase KRas; experiment: PROTAC activity at VHL/KRAS G12D mutant in human PANC-1 cells assessed as induction of protein degradation incubated for 24 hrs by Western blot analysis; format: cell-based
SNU1 = experiment: Antiproliferative activity against human SNU1 cells harboring KRAS G12D mutant assessed as inhibition of cell viability incubated for 5 days by Cell Titer Glo assay; format: functional, cell-based; details: SNU1, 120 h
HPAF-II = experiment: Antiproliferative activity against human HPAF-II cells harboring KRAS G12D mutant assessed as inhibition of cell viability incubated for 5 days by Cell Titer Glo assay; format: functional, cell-based; details: 120 h
Panc 04.03 = experiment: Antiproliferative activity against human Panc 04.03 cells harboring KRAS G12D mutant assessed as inhibition of cell viability incubated for 5 days by Cell Titer Glo assay; format: functional, cell-based; details: Panc 04.03, 120 h
NCI-H1975 = experiment: Antiproliferative activity against human NCI-H1975 cells harboring wild-type KRAS assessed as inhibition of cell viability incubated for 5 days by Cell Titer Glo assay; format: functional, cell-based; details: NCI-H1975, 120 h
[18] = system: von Hippel-Lindau disease tumor suppressor/GTPase KRas (Homo sapiens), P01116+P40337 [G12D]; experiment: PROTAC activity at VHL/KRAS G12D mutant in human ASPC1 cells assessed as decrease in pERK level at 1 uM incubated upto 24 hrs by Western blot analysis; format: cell-based
[19] = molecular target: T1, von Hippel-Lindau disease tumor suppressor/GTPase KRas; experiment: PROTAC activity at VHL/KRAS G12D mutant in human SNU1 cells assessed as inhibition of pERK level incubated for 24 hrs by Western blot analysis; format: cell-based
[20] = system: von Hippel-Lindau disease tumor suppressor/GTPase KRas (Homo sapiens), P01116+P40337 [G12D]; experiment: PROTAC activity at VHL/KRAS G12D mutant in human ASPC1 cells assessed as induction of protein degradation at 1 uM incubated for 6 hrs followed by compound washout measured after 72 hrs by Western blot analysis; format: cell-based
[21] = system: von Hippel-Lindau disease tumor suppressor/GTPase KRas (Homo sapiens), P01116+P40337 [G12D]; experiment: In vivo PROTAC activity at VHL/KRAS G12D mutant in human ASPC1 cells xenografted in BALB/c nude mouse assessed as induction of protein degradation at 50 mg/kg, sc measured for 3 to 72 hrs by Western blot analysis; format: functional, organism-based; details: time 3-72 hrs
[22] = system: von Hippel-Lindau disease tumor suppressor/GTPase KRas (Homo sapiens), P01116+P40337 [G12D]; experiment: In vivo PROTAC activity at VHL/KRAS G12D mutant in human ASPC1 cells xenografted in BALB/c nude mouse assessed as decrease in pERK level at 50 mg/kg, sc measured for 24 hrs by Western blot analysis; format: functional, organism-based
[23] = system: von Hippel-Lindau disease tumor suppressor/GTPase KRas (Homo sapiens), P01116+P40337 [G12D]; experiment: In vivo PROTAC activity at VHL/KRAS G12D mutant in human ASPC1 cells xenografted in BALB/c nude mouse assessed as decrease in DUSP4 mRNA level at 50 mg/kg, sc measured for 24 hrs by RT-qPCR analysis; format: functional, organism-based
ASPC1 [24] = experiment: Antitumor activity in human ASPC1 cells xenografted in BALB/c nude mouse assessed as tumor growth inhibition at 50 mg/kg, sc administered once per three days for 22 days relative to control; format: functional; details: ASPC1, 528 h, time 22 day, read-out: TGI
[25] = Toxicity in BALB/c nude mouse xenografted with human ASPC1 cells assessed as notable toxic symptoms at 50 mg/kg, sc for 22 days; format: organism-based; details: in vivo, 528 h, time 22 day
ASPC1 [26] = experiment: Antitumor activity in human ASPC1 cells xenografted in BALB/c nude mouse assessed as tumor growth inhibition at 30 mg/kg, ip bid for 22 days relative to control; format: functional; details: ASPC1, 528 h, time 22 day, read-out: TGI

T1 sequence (P01116 whole entry G12D, stated change not applied): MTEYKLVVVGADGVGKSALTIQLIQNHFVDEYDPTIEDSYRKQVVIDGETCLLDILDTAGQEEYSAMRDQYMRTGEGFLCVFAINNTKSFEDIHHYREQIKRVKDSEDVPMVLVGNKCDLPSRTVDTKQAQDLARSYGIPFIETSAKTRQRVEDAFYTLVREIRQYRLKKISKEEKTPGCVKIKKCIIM
T1 sequence (P40337 whole entry, stated change not applied): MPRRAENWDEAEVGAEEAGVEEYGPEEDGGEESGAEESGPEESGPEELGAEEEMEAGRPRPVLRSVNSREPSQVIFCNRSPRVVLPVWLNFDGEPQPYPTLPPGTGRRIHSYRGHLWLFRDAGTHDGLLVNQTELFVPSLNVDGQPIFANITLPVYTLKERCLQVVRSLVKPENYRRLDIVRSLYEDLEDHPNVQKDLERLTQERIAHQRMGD
Sequence of von Hippel-Lindau disease tumor suppressor/GTPase KRas (Homo sapiens), P01116+P40337 [G12D] (P01116 whole entry G12D): as the sequence (P01116 whole entry G12D, stated change not applied) above
Sequence of von Hippel-Lindau disease tumor suppressor/GTPase KRas (Homo sapiens), P01116+P40337 [G12D] (P40337 whole entry partner): as the sequence (P40337 whole entry, stated change not applied) above

CCc1c(F)ccc2cc(O)cc(-c3ncc4c(N5C[C@H]6CC[C@@H](C5)N6)nc(OC[C@@H]5CCCN5CCCCOCC(=O)N[C@H](C(=O)N5C[C@H](O)C[C@H]5C(=O)N[C@@H](C)c5ccc(-c6scnc6C)cc5)C(C)(C)C)nc4c3F)c12
half-life [1]: 8.7 h | Activity [2]: Active | DC50 [3]: 38.1 nM | IC50 [4]: 18.8 nM | Ratio IC50 [5]: 15.9 | Drug uptake [6]: Active | Activity [7]: 95% | Activity [8]: inactive | Activity [9]: inactive | Activity [10]: Active | Activity [11]: Active | Activity [12]: 75.8% | Activity [13]: inactive | Activity [14]: inactive | Activity (ASPC1 [15]): Active | DC50 [16]: 53 nM | DC50 [17]: 87.8 nM | IC50 (SNU1): 43.5 nM | IC50 (HPAF-II): 45.2 nM | IC50 (Panc 04.03): 51.5 nM | IC50 (NCI-H1975): > 10000 nM | Activity [18]: Active | IC50 [19]: 17.7 nM | Activity [20]: Active | Activity [21]: Active | Activity [22]: Active | Activity [23]: Active | inhibition in vivo at 50 mg/kg (ASPC1 [24]): 50.9% | Activity [25]: Non-Toxic | inhibition in vivo at 30 mg/kg (ASPC1 [26]): 89.1%

From ChEMBL document CHEMBL5537171, “Design, Synthesis, and Biological Evaluation of Potent and Selective PROTAC Degraders of Oncogenic KRASG12D” (J Med Chem, 2024)
